Experimental findings from patent US20250388605A1, “HETEROBIFUNCTIONAL COMPOUNDS AND METHODS OF TREATING DISEASE” (Halda Therapeutics OpCo, Inc., priority 2022, published 2025) are described below.

Where only a bound is given, the exact number is not on record here.

The subject of experiment [1] is T-Rex 293 cell line SC3 cells having increased expression of androgen receptor protein due to exposure to doxycycline. In words: Cellular growth inhibition, T-Rex 293 SC3 cells with doxycycline (increased androgen receptor expression), CellTiter-Glo. The following applies: T-Rex 293 SC3 cells with 10 ng/mL doxycycline (increased androgen receptor expression), 72 hours, CellTiter-Glo 2.0. The class given is cell-based. The method, then:
(§1) The following types of cells were prepared for this experiment: (i) a T-Rex 293 cell line having increased expression of androgen receptor protein due to exposure to doxycycline and (ii) a T-Rex 293 cell line lacking increased expression of androgen receptor protein. Ability of the test compounds to inhibit proliferation of the foregoing cell types was evaluated according to the procedures set forth below.
(§2) The doxycycline-inducible androgen receptor protein expressing cell line was established using the following protocol: T-Rex 293 cells were purchased from Invitrogen (Cat #R71007) and transfected using Lipofectamine 2000 with the wild-type androgen receptor protein sequence cloned into the pcDNA4/TO vector. Transfected cells were selected using 400 μg/mL Zeocin (Invitrogen Cat #R25001). Following selection, single clones were raised and maintained in Dulbecco's Modified Eagle Medium (DMEM) supplemented with 10% w/w Tetracycline-free fetal bovine serum (FBS) and 250 μg/mL Zeocin. Clones were analyzed for expression of androgen receptor protein in the presence and absence of 10 ng/mL doxycycline (Sigma Cat #D9891), and a single doxycycline-inducible clone (hereinafter “SC3”) was selected for use in downstream assays.
(§3) The SC3 cells were seeded on poly-D-lysine coated, black clear-bottom 384-well plates at 2500/well, in 25 μL Phenol Red Free Dulbecco's Modified Eagle Medium (DMEM) supplemented with 10% w/w charcoal-dextran treated fetal bovine serum (FBS) and 1% w/w pen-strep, with or without 10 ng/mL doxycycline. Pen-Strep is a commercially available mixture of penicillin G and streptomycin, which is used in mammalian cell culture media to prevent bacterial contamination. Phenol Red Free Dulbecco's Modified Eagle Medium (DMEM) supplemented with 10% w/w charcoal-dextran treated fetal bovine serum (FBS) and 1% w/w pen-strep, with or without 10 ng/mL doxycycline is herein referred to as Treatment Medium. Following seeding of cells in the plates, the plates were spun at 300×g for 30 seconds, then equilibrated to room temperature for 30 minutes, and then deposited in a humidified tissue culture incubator maintained at 37° C. with 5% CO2.
(§4) At 24 hours after seeding of the cells, dilutions of test compound were prepared in DMSO and dissolved in Treatment Medium, to achieve a final DMSO concentration of 0.5% w/w, thereby providing the Test Compound Solution. A 25 μL aliquot of the Test Compound Solution was added to cells in the well plates. An equal volume of a solution containing DMSO and Treatment Medium was used as a negative control. Following treatment of cells with Test Compound Solution or said equal volume of a solution containing DMSO and Treatment Medium, the plates were spun at 300×g for 30 seconds, and then left in an incubator for 72 hours.
(§5) At the end of the treatment duration, cell viability was quantified with CellTiter-Glo 2.0 reagent (Promega Cat #G9243). For this purpose, plates were equilibrated to room temperature for 30 minutes, and then 25 μL of CellTiter-Glo 2.0 reagent was added to cells in the plate wells. Plates were then agitated on a shaker for two minutes at 500 rpm and subsequently incubated at room temperature for 10 minutes. Following incubation, the plates were spun at 3000×g for 30 seconds, then sealed with an optical adhesive cover, and luminescence readings were measured with an EnVision Plate Reader.
(§6) Data was normalized using zero luminescence for baseline. A four-parameter non-linear regression curve fit was applied to dose-response data in GraphPad Prism data analysis software to determine the half-maximal growth inhibitory concentration (GI50) for each test compound.

The subject of experiment [2] is T-Rex 293 cell line SC3 cells lacking increased expression of androgen receptor protein. Nature of the experiment: Cellular growth inhibition, T-Rex 293 SC3 cells without doxycycline (no increased androgen receptor expression), CellTiter-Glo. Format: cell-based. The following applies: T-Rex 293 SC3 cells not exposed to doxycycline (no increased androgen receptor expression), 72 hours. As to the method:
as §1, §2, §3, §4, §5, §6
A general note: In ATP-based viability assays light output follows the ATP content of the culture.

The subject of experiment [3] is VCaP cells. In words: Cellular growth inhibition assay for VCaP cells, CellTiter-Glo. The class given is cell-based, human. Particulars: 72 hours. The method, then: VCaP cells were purchased from American Type Cell Culture (ATCC Cat #CRL2876) and then seeded on poly-D-lysine coated, black clear-bottom 384-well plates at 5000/well in 25 μL Dulbecco's Modified Eagle Medium (DMEM) supplemented with 10% w/w Fetal bovine serum (FBS) and 1% w/w Pen-Strep. Pen-Strep is a commercially available mixture of penicillin G and streptomycin, which is used in mammalian cell culture media to prevent bacterial contamination. Dulbecco's Modified Eagle Medium (DMEM) supplemented with 10% w/w fetal bovine serum (FBS) and 1% w/w Pen-Strep is herein referred to as Treatment Medium. Following seeding of cells in the plates, the plates were spun at 300×g for 30 seconds, then equilibrated to room temperature for 30 minutes, and then deposited in a humidified tissue culture incubator maintained at 37° C. with 5% CO2.
as §4, §5, §6

Turning to `CCS(=O)(=O)Nc1ccc(Oc2cccc(OCCCOC3CCN(c4ncc(C(=O)N[C@H]5C(C)(C)[C@H](Oc6ccc(C#N)c(Cl)c6)C5(C)C)cn4)CC3)c2)c(-c2cn(C)c(=O)c3[nH]ccc23)c1` [Compound I-17], the GI50 in experiment [1], in experiment [2] and in experiment [3] (Homo sapiens) was less than 500 nM in each case.

Turning to `CCS(=O)(=O)Nc1ccc(Oc2cccc(OCCOCCCOC3CCN(c4ncc(C(=O)N[C@H]5C(C)(C)[C@H](Oc6ccc(C#N)c(Cl)c6)C5(C)C)cn4)CC3)c2)c(-c2cn(C)c(=O)c3[nH]ccc23)c1` [Compound I-16], the GI50 in experiment [1], in experiment [2] and in experiment [3] (Homo sapiens) was less than 500 nM each time.

For `CCS(=O)(=O)Cc1ccc(Oc2cccc(CCCOC3CCN(c4ncc(C(=O)N[C@H]5C(C)(C)[C@H](Oc6ccc(C#N)c(Cl)c6)C5(C)C)cn4)CC3)c2F)c(-c2cn(C)c(=O)c3[nH]ccc23)c1` [Compound I-184], the GI50 in experiment [1], in experiment [2] and in experiment [3] (Homo sapiens) was less than 500 nM in each case.

In the case of `CCS(=O)(=O)Nc1ccc(Oc2cccc(N(CCN(C)C3CCN(c4ncc(C(=O)N[C@H]5C(C)(C)[C@H](Oc6ccc(C#N)c(Cl)c6)C5(C)C)cn4)CC3)C(C)C)c2F)c(-c2cn(C)c(=O)c3[nH]ccc23)c1` [Compound I-183], the GI50 in experiment [1], in experiment [2] and in experiment [3] was less than 500 nM each time.

As to `CCS(=O)(=O)Nc1ccc(Oc2cccc(OCCOC3CCN(c4ccc(C(=O)N[C@H]5C(C)(C)[C@H](Oc6ccc(C#N)c(Cl)c6)C5(C)C)nn4)CC3)c2F)c(-c2cn(C)c(=O)c3[nH]ccc23)c1` [Compound I-162], the values for the GI50 in experiment [1], in experiment [2] and in experiment [3] (Homo sapiens) were less than 500 nM, more than 3000 nM and less than 500 nM, respectively.

`CCS(=O)(=O)c1ccc(Oc2cccc(OCCOC3CCN(c4ccc(C(=O)N[C@H]5C(C)(C)[C@H](Oc6ccc(C#N)c(Cl)c6)C5(C)C)nn4)CC3)c2F)c(-c2cn(C)c(=O)c3[nH]ccc23)c1` [Compound I-169]: the GI50 in experiment [1], in experiment [2] and in experiment [3] (Homo sapiens) was less than 500 nM throughout.

On to `Cn1cc(-c2cc(NS(=O)(=O)C(F)(F)F)ccc2Oc2cccc(OCCOC3CCN(c4ncc(C(=O)N[C@H]5C(C)(C)[C@H](Oc6ccc(C#N)c(Cl)c6)C5(C)C)cn4)CC3)c2F)c2cc[nH]c2c1=O` [Compound I-163, N-[3-(3-chloro-4-cyano-phenoxy)-2,2,4,4-tetramethyl-cyclobutyl]-2-[4-[2-[2-fluoro-3-[2-(6-methyl-7-oxo-1H-pyrrolo[2,3-c]pyridin-4-yl)-4-(trifluoromethylsulfonylamino)phenoxy]phenoxy]ethoxy]-1-piperidyl]pyrimidine-5-carboxamide], for which the values for the 50% growth inhibitory concentration (GI50) in experiment [1], in experiment [2] and in experiment [3] (Homo sapiens) were less than 500 nM, more than 3000 nM and 500 to 1500 nM, respectively.

For the compound `CCS(=O)(=O)Nc1ccc(Oc2cc(OCCOC3CCN(c4ncc(C(=O)N[C@H]5C(C)(C)[C@H](Oc6ccc(C#N)c(Cl)c6)C5(C)C)cn4)CC3)ccc2F)c(-c2cn(C)c(=O)c3[nH]ccc23)c1` [Compound I-150], the values for the GI50 in experiment [1], in experiment [2] and in experiment [3] (Homo sapiens) were less than 500 nM, more than 3000 nM and less than 500 nM, respectively.

With `CCS(=O)(=O)Nc1ccc(Oc2cccc(OCCCOCCOC3CCN(c4ncc(C(=O)N[C@H]5C(C)(C)[C@H](Oc6ccc(C#N)c(Cl)c6)C5(C)C)cn4)CC3)c2)c(-c2cn(C)c(=O)c3[nH]ccc23)c1` [Compound I-14], the GI50 in experiment [1] is less than 500 nM; in experiment [2], 500 to 1500 nM; in experiment [3] (Homo sapiens), less than 500 nM.

On to `CCS(=O)(=O)Nc1ccc(Oc2cccc(N(C)C3CC(C4CCN(c5ncc(C(=O)N[C@H]6C(C)(C)[C@H](Oc7ccc(C#N)c(Cl)c7)C6(C)C)cn5)CC4)C3)c2)c(-c2cn(C)c(=O)c3[nH]ccc23)c1` (stereo partly drawn) [Compound I-172], for which the GI50 in experiment [1] was less than 500 nM; in experiment [2] it was more than 3000 nM; in experiment [3], more than 3000 nM.

For `CCS(=O)(=O)c1ccc(Oc2cccc(CCCOC3CCN(c4ncc(C(=O)N[C@H]5C(C)(C)[C@H](Oc6ccc(C#N)c(Cl)c6)C5(C)C)cn4)CC3)c2F)c(-c2cn(C)c(=O)c3[nH]ccc23)c1` [Compound I-176], the GI50 in experiment [1], in experiment [2] and in experiment [3] (Homo sapiens) was less than 500 nM each time.

As for `Cn1cc(-c2cc(NS(=O)(=O)C3CC3)ccc2Oc2cccc(CCOC3CCN(c4ncc(C(=O)N[C@H]5C(C)(C)[C@H](Oc6ccc(C#N)c(Cl)c6)C5(C)C)cn4)CC3)c2F)c2cc[nH]c2c1=O` [Compound I-136], the GI50 in experiment [1], in experiment [2] and in experiment [3] was less than 500 nM each time.

Regarding `CCS(=O)(=O)Cc1ccc(Oc2cccc(OCCOC3CCN(c4ccc(C(=O)N[C@H]5C(C)(C)[C@H](Oc6ccc(C#N)c(Cl)c6)C5(C)C)nn4)CC3)c2F)c(-c2cn(C)c(=O)c3[nH]ccc23)c1` [Compound I-167], the figures for the GI50 in experiment [1], in experiment [2] and in experiment [3] (Homo sapiens) were less than 500 nM, more than 3000 nM and less than 500 nM, respectively.

Turning to `CCS(=O)(=O)Nc1ccc(Oc2cccc(C(=O)N(C)CCOC3CCN(c4ncc(C(=O)N[C@H]5C(C)(C)[C@H](Oc6ccc(C#N)c(Cl)c6)C5(C)C)cn4)CC3)c2)c(-c2cn(C)c(=O)c3[nH]ccc23)c1` [Compound I-66, N-((1r, 3r)-3-(3-chloro-4-cyanophenoxy)-2,2,4,4-tetramethylcyclobutyl)-2-(4-(2-(3-(4-(ethylsulfonamido)-2-(6-methyl-7-oxo-6,7-dihydro-1H-pyrrolo[2,3-c]pyridin-4-yl)phenoxy)-N-methylbenzamido)ethoxy)piperidin-1-yl)pyrimidine-5-carboxamide], the GI50 in experiment [1] is less than 500 nM; in experiment [2] it was more than 3000 nM; in experiment [3] (Homo sapiens), less than 500 nM.

On to `CCS(=O)(=O)Nc1ccc(Oc2cccc(OCCN(C)C3CCN(c4ncc(C(=O)N[C@H]5C(C)(C)[C@H](Oc6ccc(C#N)c(Cl)c6)C5(C)C)cn4)CC3)c2)c(-c2cn(C)c(=O)c3[nH]ccc23)c1` [Compound I-87], for which the 50% growth inhibitory concentration (GI50) in experiment [1], in experiment [2] and in experiment [3] (Homo sapiens) was less than 500 nM throughout.

For the compound `Cn1cc(-c2cc(C(C)(C)O)ccc2Oc2ccc(N3CC4(CCN(c5ncc(C(=O)N[C@H]6C(C)(C)[C@H](Oc7ccc(C#N)c(Cl)c7)C6(C)C)cn5)CC4)C3)cc2)c2cc[nH]c2c1=O` [Compound I-353], the GI50 was less than 500 nM in experiment [1], 1500 to 3000 nM in experiment [2] and 1500 to 3000 nM in experiment [3].

For `Cn1cc(-c2cc(CS(C)(=O)=O)ccc2Oc2cccc(OCCOC3CCN(c4ncc(C(=O)N[C@H]5C(C)(C)[C@H](Oc6ccc(C#N)c(Cl)c6)C5(C)C)cn4)CC3)c2)c2cc[nH]c2c1=O` [Compound I-53, N-((1r, 3r)-3-(3-chloro-4-cyanophenoxy)-2,2,4,4-tetramethylcyclobutyl)-2-(4-(2-(3-(2-(6-methyl-7-oxo-6,7-dihydro-1H-pyrrolo[2,3-c]pyridin-4-yl)-4-((methylsulfonyl)methyl)phenoxy)phenoxy)ethoxy)piperidin-1-yl)pyrimidine-5-carboxamide], the GI50 in experiment [1], in experiment [2] and in experiment [3] (Homo sapiens) was less than 500 nM each time.

Usually GI50 stands for the concentration that inhibits growth by half.
